What was measured:
Test in all cases: Kinase panel enzymatic inhibition assay (Nanosyn)
Format in all cases: biochemical
Conditions in all cases: compound 5 μM; ATP at Km; 30-minute pre-incubation
[1] = target: T1, SRC (Homo sapiens, UniProt P12931)
T1 construct: Nanosyn (contract laboratory that ran the panel)
How it was run: (§1)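 Read-out is percent inhibition or IC50, obtained by mobility shift, ADP detection or time-resolved fluorescence detection. Each kinase was run with ATP at its Km, and compound at 5 μM was pre-incubated for 30 minutes.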

[2] = target: T2, HCK (Homo sapiens, UniProt P08631)
T2 construct: purchased Nanosyn (contract screening)
How it was run: as §1

[3] = target: T3, KDR (Homo sapiens, UniProt P35968)
T3 construct: purchased Nanosyn (contract screening)
T3 sequence (P35968 20-1356): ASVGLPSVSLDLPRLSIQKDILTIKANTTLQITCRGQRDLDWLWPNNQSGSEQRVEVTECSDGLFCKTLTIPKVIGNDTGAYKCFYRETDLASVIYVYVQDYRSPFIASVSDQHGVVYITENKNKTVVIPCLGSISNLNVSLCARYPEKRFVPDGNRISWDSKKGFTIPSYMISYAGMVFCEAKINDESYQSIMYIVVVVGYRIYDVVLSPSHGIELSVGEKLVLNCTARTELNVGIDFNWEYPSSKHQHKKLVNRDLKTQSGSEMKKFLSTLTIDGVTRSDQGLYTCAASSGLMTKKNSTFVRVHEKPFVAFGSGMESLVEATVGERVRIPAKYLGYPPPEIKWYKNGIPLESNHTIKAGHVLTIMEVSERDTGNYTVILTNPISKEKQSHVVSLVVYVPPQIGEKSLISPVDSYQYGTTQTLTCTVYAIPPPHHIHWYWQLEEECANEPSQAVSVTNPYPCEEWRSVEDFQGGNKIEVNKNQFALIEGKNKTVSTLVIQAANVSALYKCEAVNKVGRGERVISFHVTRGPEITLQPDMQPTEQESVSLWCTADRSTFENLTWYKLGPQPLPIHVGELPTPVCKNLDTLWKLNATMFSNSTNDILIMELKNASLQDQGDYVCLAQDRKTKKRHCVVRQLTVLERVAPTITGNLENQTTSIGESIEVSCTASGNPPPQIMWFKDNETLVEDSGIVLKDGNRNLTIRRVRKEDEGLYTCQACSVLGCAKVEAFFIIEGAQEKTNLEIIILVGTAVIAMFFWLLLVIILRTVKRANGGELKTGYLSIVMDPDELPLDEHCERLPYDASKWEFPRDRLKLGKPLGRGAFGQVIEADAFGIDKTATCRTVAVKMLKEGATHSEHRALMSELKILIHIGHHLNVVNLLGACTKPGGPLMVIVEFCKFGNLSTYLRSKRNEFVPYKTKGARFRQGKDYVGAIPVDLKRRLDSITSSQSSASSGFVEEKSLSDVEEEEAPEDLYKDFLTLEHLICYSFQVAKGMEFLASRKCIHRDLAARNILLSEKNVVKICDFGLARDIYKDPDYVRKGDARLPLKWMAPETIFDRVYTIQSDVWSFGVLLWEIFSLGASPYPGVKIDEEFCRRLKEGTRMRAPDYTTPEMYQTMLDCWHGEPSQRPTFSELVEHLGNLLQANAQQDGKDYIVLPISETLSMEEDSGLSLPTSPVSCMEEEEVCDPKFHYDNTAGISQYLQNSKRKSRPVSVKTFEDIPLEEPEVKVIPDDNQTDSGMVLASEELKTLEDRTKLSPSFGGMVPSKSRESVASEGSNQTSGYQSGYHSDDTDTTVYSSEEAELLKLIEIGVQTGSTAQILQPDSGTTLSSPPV
How it was run: as §1

[4] = target: T4, TNIK (Homo sapiens, UniProt Q9UKE5)
T4 construct: Nanosyn (contract laboratory that ran the panel)
T4 sequence (Q9UKE5 whole entry): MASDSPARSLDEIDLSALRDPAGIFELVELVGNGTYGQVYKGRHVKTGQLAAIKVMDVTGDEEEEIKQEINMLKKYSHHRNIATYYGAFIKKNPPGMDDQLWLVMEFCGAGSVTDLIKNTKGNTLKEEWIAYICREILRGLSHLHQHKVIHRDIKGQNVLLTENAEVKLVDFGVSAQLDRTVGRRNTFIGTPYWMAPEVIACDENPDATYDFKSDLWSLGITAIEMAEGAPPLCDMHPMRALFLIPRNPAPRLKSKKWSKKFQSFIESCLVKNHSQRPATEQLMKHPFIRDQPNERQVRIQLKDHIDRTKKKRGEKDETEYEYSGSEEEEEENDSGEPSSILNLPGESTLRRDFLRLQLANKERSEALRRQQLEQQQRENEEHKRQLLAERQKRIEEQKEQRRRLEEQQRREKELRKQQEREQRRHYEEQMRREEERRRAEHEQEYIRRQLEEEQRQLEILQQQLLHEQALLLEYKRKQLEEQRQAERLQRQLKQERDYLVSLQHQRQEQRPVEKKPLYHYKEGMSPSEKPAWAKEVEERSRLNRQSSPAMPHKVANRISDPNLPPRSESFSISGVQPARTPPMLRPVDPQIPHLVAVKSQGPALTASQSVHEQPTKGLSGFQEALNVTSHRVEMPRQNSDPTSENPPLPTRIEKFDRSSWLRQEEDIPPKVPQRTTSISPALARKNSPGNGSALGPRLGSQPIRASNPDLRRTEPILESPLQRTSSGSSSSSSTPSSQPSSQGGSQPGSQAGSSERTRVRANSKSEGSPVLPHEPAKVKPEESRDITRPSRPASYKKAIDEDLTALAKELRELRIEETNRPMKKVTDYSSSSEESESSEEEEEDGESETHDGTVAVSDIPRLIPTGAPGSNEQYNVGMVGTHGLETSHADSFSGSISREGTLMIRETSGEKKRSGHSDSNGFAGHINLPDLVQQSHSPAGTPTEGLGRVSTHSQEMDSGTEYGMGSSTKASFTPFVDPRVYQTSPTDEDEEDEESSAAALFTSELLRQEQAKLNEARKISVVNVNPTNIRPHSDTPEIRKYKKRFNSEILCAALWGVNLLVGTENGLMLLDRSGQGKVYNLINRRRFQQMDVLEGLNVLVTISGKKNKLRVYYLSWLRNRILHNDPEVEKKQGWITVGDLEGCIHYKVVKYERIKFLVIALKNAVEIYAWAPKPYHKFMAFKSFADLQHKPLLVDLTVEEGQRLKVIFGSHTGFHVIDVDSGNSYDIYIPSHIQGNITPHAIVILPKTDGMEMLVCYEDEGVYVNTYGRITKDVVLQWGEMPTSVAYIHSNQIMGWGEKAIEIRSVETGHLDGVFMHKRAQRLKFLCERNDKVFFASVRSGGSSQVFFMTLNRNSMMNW
How it was run: as §1

[5] = target: T5, LCK (Homo sapiens, UniProt P06239)
T5 construct: purchased Nanosyn (contract screening)
T5 sequence (P06239 whole entry): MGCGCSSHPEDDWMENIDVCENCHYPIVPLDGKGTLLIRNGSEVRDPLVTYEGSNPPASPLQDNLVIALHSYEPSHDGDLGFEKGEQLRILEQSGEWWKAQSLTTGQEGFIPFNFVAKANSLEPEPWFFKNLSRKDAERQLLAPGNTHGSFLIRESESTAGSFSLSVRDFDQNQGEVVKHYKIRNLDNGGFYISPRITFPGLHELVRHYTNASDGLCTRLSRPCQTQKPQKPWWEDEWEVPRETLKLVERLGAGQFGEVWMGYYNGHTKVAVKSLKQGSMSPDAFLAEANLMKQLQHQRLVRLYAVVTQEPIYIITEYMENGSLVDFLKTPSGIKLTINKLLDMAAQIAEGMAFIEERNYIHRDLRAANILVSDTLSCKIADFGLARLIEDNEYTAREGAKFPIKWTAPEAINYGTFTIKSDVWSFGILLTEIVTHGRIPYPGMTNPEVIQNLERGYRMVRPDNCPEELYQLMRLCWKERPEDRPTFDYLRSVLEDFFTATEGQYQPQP
How it was run: as §1

[6] = target: T6, COT1 (Homo sapiens, UniProt P41279)
T6 construct: purchased Nanosyn (contract screening)
T6 sequence (P41279 whole entry): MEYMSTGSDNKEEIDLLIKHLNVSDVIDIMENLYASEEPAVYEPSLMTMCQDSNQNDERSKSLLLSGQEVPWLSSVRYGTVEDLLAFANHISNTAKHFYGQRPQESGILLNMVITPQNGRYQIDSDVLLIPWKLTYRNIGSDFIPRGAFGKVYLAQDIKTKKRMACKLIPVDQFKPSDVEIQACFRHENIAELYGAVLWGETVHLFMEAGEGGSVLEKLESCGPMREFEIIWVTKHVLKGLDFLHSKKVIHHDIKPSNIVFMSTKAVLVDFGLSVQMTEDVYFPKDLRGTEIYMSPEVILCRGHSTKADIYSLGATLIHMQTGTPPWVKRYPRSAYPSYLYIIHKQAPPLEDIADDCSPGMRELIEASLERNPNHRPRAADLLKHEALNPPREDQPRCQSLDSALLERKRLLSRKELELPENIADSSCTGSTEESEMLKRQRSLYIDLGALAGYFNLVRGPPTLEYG
How it was run: as §1

[7] = target: T7, MAP4K2 (Homo sapiens, UniProt Q12851)
T7 construct: purchased Nanosyn (contract screening)
T7 sequence (Q12851 1-820): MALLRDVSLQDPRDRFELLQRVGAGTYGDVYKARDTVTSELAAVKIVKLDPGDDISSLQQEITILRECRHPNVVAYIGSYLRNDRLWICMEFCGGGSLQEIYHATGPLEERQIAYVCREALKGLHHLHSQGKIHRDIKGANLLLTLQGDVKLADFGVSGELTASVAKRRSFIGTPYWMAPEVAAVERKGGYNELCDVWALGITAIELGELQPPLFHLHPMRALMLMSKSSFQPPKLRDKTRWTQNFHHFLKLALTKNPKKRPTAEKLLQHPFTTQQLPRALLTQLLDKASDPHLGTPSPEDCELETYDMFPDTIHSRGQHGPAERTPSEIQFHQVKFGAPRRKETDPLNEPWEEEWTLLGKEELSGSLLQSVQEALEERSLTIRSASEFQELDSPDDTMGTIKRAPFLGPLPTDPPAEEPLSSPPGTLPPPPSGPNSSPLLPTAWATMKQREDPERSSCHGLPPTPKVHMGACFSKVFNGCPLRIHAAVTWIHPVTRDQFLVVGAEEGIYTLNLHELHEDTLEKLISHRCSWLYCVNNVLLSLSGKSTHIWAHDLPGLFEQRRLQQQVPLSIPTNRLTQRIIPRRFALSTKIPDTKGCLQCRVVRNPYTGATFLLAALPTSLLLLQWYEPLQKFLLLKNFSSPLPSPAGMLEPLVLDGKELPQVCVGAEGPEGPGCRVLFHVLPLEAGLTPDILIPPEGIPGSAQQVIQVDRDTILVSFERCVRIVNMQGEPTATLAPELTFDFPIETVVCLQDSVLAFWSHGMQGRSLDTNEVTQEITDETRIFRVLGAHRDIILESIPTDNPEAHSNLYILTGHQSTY
How it was run: as §1

[8] = target: T8, SGK2 (Homo sapiens, UniProt Q9HBY8)
T8 construct: Nanosyn (contract laboratory that ran the panel)
T8 sequence (Q9HBY8 1-367): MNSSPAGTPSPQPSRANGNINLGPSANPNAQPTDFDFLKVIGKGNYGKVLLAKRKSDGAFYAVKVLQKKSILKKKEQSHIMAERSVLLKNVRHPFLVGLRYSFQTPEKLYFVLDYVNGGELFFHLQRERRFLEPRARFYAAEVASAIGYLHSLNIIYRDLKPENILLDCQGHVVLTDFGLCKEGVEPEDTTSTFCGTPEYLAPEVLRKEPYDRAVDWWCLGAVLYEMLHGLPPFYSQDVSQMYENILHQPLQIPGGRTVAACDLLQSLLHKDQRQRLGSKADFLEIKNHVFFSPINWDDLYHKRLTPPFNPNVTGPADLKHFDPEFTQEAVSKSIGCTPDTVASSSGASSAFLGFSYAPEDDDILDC
How it was run: as §1

[9] = target: T9, DDR2 (Homo sapiens, UniProt Q16832)
T9 construct: purchased Nanosyn (contract screening)
T9 sequence (Q16832 22-855): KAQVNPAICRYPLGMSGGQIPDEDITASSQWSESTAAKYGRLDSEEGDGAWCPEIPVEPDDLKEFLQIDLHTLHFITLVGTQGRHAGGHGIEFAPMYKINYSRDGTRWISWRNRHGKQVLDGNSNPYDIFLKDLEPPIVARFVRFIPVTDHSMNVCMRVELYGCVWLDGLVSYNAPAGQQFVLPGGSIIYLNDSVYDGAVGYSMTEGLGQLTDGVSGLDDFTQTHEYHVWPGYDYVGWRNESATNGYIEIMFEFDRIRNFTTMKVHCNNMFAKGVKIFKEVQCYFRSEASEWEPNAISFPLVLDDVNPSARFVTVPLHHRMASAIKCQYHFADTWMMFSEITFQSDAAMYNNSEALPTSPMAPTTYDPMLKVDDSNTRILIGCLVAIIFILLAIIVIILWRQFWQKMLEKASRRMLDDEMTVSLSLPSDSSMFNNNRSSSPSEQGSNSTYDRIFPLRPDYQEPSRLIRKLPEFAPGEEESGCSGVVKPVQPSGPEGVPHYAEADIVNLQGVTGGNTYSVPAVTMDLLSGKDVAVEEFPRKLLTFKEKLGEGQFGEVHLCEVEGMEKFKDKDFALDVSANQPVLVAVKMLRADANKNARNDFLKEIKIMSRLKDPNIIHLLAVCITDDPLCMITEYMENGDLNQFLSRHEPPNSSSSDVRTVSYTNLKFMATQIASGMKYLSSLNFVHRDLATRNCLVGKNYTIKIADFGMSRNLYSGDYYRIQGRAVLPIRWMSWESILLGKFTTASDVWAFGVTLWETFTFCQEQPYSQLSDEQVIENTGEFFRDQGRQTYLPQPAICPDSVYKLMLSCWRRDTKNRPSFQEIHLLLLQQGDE
How it was run: as §1

[10] = target: T10, p38a (Homo sapiens, UniProt Q16539)
T10 construct: Nanosyn (contract laboratory that ran the panel)
T10 sequence (Q16539 whole entry): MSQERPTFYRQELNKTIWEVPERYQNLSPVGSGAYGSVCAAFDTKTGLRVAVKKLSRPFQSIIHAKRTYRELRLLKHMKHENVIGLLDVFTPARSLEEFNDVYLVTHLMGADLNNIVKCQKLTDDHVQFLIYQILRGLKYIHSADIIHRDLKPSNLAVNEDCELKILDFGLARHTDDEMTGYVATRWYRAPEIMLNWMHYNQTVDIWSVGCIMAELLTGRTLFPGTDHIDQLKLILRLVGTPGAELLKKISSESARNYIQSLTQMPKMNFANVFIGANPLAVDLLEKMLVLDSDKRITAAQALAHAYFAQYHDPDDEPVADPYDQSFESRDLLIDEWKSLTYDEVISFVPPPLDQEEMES
How it was run: as §1

[11] = target: T11, BRK (Homo sapiens, UniProt Q13882)
T11 construct: purchased Nanosyn (contract screening)
T11 sequence (Q13882 whole entry): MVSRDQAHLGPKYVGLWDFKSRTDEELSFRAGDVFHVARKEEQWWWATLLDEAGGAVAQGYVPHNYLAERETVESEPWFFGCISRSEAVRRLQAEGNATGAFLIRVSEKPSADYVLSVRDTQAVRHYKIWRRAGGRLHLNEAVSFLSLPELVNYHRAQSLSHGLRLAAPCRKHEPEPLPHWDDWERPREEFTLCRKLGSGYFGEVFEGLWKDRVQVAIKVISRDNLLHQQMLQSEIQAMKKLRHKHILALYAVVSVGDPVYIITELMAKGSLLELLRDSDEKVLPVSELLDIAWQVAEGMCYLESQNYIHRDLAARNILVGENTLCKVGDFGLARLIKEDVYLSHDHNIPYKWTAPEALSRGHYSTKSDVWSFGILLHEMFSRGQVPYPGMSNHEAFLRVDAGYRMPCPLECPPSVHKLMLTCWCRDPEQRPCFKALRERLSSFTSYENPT
How it was run: as §1

T1 sequence (P12931 whole entry): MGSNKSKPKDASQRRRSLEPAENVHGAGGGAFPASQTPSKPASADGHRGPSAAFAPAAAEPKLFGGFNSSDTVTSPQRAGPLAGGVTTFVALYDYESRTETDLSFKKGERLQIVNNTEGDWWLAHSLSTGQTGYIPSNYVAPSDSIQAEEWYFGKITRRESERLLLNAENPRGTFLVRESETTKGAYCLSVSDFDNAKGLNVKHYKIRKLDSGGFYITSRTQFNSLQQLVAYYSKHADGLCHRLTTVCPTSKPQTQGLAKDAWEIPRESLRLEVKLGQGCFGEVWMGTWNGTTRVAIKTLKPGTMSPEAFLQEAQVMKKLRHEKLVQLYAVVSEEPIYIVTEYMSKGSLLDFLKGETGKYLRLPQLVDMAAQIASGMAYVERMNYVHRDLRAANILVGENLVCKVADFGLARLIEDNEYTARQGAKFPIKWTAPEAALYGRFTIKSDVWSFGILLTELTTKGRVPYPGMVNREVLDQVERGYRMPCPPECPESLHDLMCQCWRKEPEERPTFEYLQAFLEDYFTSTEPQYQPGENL

Structure (SMILES) | inhibition at 5 µM [1] [%] | inhibition at 5 µM [2] [%] | inhibition at 5 µM [3] [%] | inhibition at 5 µM [4] [%] | inhibition at 5 µM [5] [%] | inhibition at 5 µM [6] [%] | inhibition at 5 µM [7] [%] | inhibition at 5 µM [8] [%] | inhibition at 5 µM [9] [%] | inhibition at 5 µM [10] [%] | inhibition at 5 µM [11] [%]
Cc1ccc(NC(=O)c2cc([S+](C)[O-])n(-c3ccc(F)cc3)n2)cc1-c1cc(N2CCOCC2)c(=O)n(C)c1 (centres unmarked) [Ex11, 1-(4-fluorophenyl)-N-(4-methyl-3-(1-methyl-5-morpholino-6-oxo-1,6-dihydropyridin-3-yl)phenyl)-5-(methylsulfinyl)-1H-pyrazole-3-carboxamide] | < 79 | < 79 | < 79 | < 79 | < 79 | < 79 | < 79 | < 79 | < 79 | ≥ 95 | < 79
Cc1ccc(NC(=O)c2cc(S(C)(=O)=O)n(-c3ccc(F)cc3)n2)cc1-c1cc(N2CCOCC2)c(=O)n(C)c1 [Ex12, 1-(4-fluorophenyl)-N-(4-methyl-3-(1-methyl-5-morpholino-6-oxo-1,6-dihydropyridin-3-yl)phenyl)-5-(methylsulfonyl)-1H-pyrazole-3-carboxamide] | < 79 | < 79 | < 79 | < 79 | < 79 | < 79 | < 79 | < 79 | < 79 | < 79 | < 79
Cc1ccc(NC(=O)c2cc(S(C)(=O)=O)n(-c3ccc(F)cc3)n2)cc1Nc1nccc(-c2cccnc2N)n1 [Ex13, N-(3-((4-(2-aminopyridin-3-yl)pyrimidin-2-yl)amino)-4-methylphenyl)-1-(4-fluorophenyl)-5-(methylsulfonyl)-1H-pyrazole-3-carboxamide] | < 79 | < 79 | < 79 | < 79 | 90 to 94 | < 79 | < 79 | < 79 | ≥ 95 | < 79 | < 79
Cc1ccc(NC(=O)c2cc(S(C)(=O)=O)n(-c3ccc(F)cc3)n2)cc1C#Cc1cnc2cccnn12 [Ex14, 1-(4-fluorophenyl)-N-(3-(imidazo[1,2-b]pyridazin-3-ylethynyl)-4-methylphenyl)-5-(methylsulfonyl)-1H-pyrazole-3-carboxamide] | < 79 | 90 to 94 | 90 to 94 | < 79 | ≥ 95 | < 79 | < 79 | < 79 | ≥ 95 | < 79 | < 79
CCOC(=O)Nc1cn2nc(Nc3cc(NC(=O)c4cc(S(C)(=O)=O)n(-c5ccc(F)cc5)n4)ccc3C)ccc2n1 [Ex15, ethyl (6-((5-(1-(4-fluorophenyl)-5-(methylsulfonyl)-1H-pyrazole-3-carboxamido)-2-methylphenyl)amino)imidazo[1,2-b]pyridazin-2-yl)carbamate] | 90 to 94 | 80 to 89 | 80 to 89 | < 79 | ≥ 95 | < 79 | < 79 | < 79 | ≥ 95 | ≥ 95 | < 79
CNC(=O)c1cc(Oc2ccc(NC(=O)c3cc(S(C)(=O)=O)n(-c4ccc(F)cc4)n3)c(F)c2)ccn1 [Ex17, 4-(3-fluoro-4-(1-(4-fluorophenyl)-5-(methylsulfonyl)-1H-pyrazole-3-carboxamido)phenoxy)-N-methylpicolinamide] | < 79 | < 79 | < 79 | < 79 | < 79 | < 79 | < 79 | < 79 | < 79 | < 79 | ≥ 95
CCOC(=O)Nc1cn2nc(Nc3cc(NC(=O)c4cc([S+](C)[O-])n(-c5ccc(F)cc5)n4)ccc3C)ccc2n1 (centres unmarked) [Ex18, ethyl (6-((5-(1-(4-fluorophenyl)-5-(methylsulfinyl)-1H-pyrazole-3-carboxamido)-2-methylphenyl)amino)imidazo[1,2-b]pyridazin-2-yl)carbamate] | 80 to 89 | ≥ 95 | < 79 | < 79 | ≥ 95 | < 79 | < 79 | < 79 | ≥ 95 | ≥ 95 | < 79
